{
  "source": "patent US20050054615A1",
  "about": "“Calmodulin independent activation of nitric oxide synthase” (Rensselaer Polytechnic Institute, priority 2002, published 2005)",
  "key": {"eNOS [1]": {"target": "T1, eNOS (Bos taurus, UniProt P29473)", "T1 construct": "further column purification with gel filtration or anion exchange produces very pure full length NOS; made in house; host or cells: E. coli BL21 (pCWori+)", "test": "Griess assay of NO production by eNOS", "type": "biochemical, bovine", "settings": "for eNOS activity relative to eNOS activated by CaM alone: initial concentrations of NADPH and 2′AMP equal, presence of calcium/CaM", "procedure": "(§1) Nitric Oxide production was assayed using the Griess assay as adapted for microtiter plates (Gross, S. S. (1996) Methods Enzymol. 268:159-68); calcium dependence was measured using EDTA as a Ca+2 buffer system. […] NADPH-dependent cytochrome c reduction was measured spectrophotometrically as described by McMillan et al (McMillan, K., et al., (1992) Proc Nat. Acad. Sci. U.S.A. 89, 11141-11145), adapted to 96-well plate microtiter plates. In each well, the 500-uL reaction mixture contained 50 mM Na+ TRIS buffer, pH 7.5, 50 uM EDTA, 50 uM NADPH, 50 uM horse heart cytochrome c, and ˜10 nM of nNOS. Cytochrome c reduction was monitored at 550 nm (ε=2.1×104/M). In Cam/Ca+2 dependence studies, 0.75 uM CaCl2 and 10 pg/ml calmodulin were added to reaction mixtures. Assays were performed on a SpectraMAX plate reader (Molecular Devices).\nTitration of eNOS with 2′AMP in the presence of ‘fully’ activating levels of Ca+2/CaM was performed using a Greiss assay (see, e.g., the Griess Reagent System, Promega Corporation, Madison, Wis.; and manufacturer's instructions for use). Calcium stoichometries were between two and four. The titration produced an additional activation corresponding to an apparent Kd of ˜1 mM. […] In the most widely used assay systems eNOS is 2-3 fold hyperactivated by 2′AMP (Greiss assay). Enhanced levels of cytochrome c reduction (2-5 fold) can also be observed in both eNOS and nNOS."}, "eNOS [2]": {"target": "T2, eNOS (Bos taurus, UniProt P29473)", "T2 construct": "further column purification with gel filtration or anion exchange produces very pure full length NOS; made in house; host or cells: E. coli BL21 (pCWori+)", "T2 sequence (P29473 1-1205)": "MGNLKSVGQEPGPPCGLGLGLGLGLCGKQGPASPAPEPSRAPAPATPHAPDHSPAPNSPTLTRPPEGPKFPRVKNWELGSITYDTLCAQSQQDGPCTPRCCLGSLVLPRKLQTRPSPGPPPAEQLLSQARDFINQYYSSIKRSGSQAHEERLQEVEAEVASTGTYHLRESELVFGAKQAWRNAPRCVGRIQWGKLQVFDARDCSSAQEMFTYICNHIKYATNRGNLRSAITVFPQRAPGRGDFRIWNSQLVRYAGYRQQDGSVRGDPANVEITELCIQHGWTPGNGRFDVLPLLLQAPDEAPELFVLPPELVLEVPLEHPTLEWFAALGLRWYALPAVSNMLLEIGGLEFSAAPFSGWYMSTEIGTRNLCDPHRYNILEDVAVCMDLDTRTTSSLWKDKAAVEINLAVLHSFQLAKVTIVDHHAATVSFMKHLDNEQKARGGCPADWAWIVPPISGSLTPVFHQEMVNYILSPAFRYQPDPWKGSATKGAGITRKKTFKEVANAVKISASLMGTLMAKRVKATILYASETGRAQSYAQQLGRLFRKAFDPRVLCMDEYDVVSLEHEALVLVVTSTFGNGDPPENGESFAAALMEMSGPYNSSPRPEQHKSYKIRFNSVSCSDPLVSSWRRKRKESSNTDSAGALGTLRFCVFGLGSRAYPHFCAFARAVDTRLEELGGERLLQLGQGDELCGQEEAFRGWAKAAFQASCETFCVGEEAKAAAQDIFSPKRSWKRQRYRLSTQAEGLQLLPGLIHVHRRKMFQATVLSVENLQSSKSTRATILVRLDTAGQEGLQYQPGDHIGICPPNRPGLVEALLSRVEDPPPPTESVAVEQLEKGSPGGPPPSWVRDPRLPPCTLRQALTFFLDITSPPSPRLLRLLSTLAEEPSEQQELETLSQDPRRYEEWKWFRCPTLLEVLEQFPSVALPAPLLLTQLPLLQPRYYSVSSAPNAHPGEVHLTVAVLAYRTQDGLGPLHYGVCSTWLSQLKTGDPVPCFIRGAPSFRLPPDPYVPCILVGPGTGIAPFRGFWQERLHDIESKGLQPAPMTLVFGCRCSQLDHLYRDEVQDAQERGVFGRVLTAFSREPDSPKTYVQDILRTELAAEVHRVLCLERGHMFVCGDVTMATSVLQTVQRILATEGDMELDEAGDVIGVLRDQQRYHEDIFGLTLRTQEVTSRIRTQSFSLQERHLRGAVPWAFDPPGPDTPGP", "test": "NADPH-dependent cytochrome c reduction (electron transfer), eNOS", "type": "biochemical, bovine"}, "nNOS": {"target": "T3, nNOS (Rattus norvegicus, UniProt P29476)", "T3 construct": "further column purification with gel filtration or anion exchange produces very pure full length NOS; made in house; host or cells: E. coli BL21 (pCWori+)", "T3 sequence (P29476 whole entry)": "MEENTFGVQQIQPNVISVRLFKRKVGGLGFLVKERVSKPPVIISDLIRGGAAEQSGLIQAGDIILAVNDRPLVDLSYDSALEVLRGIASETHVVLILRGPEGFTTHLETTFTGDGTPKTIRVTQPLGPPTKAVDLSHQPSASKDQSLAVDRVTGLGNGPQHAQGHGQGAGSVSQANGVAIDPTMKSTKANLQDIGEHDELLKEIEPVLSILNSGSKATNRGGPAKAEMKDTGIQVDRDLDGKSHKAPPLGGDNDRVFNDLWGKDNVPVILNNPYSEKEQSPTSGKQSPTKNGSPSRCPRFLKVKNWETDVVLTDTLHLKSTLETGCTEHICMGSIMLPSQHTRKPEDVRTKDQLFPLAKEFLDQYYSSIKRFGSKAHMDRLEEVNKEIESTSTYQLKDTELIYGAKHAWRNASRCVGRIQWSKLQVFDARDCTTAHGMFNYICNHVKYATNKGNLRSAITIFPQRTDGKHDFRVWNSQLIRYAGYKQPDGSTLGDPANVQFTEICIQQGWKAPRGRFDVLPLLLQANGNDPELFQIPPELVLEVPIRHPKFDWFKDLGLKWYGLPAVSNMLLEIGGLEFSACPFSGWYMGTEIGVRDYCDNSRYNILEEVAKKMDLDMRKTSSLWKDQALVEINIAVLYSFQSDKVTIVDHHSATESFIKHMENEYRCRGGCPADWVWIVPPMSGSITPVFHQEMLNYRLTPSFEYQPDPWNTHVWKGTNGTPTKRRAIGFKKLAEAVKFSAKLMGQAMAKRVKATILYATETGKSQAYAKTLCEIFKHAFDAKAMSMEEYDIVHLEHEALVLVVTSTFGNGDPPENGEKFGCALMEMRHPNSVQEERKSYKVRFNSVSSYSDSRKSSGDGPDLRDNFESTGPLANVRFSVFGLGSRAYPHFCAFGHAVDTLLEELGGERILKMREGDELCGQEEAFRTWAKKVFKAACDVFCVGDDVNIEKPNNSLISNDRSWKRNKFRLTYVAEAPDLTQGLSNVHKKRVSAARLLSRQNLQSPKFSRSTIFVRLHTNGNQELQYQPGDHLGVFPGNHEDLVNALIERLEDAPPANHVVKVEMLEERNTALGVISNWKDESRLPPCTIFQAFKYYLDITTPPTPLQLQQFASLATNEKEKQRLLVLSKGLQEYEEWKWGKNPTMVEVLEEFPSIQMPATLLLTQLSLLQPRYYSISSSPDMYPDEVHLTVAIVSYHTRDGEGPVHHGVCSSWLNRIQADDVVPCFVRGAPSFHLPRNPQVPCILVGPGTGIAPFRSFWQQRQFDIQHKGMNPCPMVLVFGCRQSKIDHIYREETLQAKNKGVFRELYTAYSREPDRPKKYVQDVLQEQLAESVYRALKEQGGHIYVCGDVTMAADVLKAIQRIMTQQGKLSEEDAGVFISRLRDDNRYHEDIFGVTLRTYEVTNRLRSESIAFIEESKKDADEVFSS", "test": "NADPH-dependent cytochrome c reduction (electron transfer), nNOS", "type": "biochemical"}, "cNOS": {"system": "cNOS", "test": "Activation of constitutive NOS by nucleotide ligands", "type": "biochemical", "settings": "absence of calmodulin; particularly in Tris buffer", "procedure": "The effect of 2′AMP on the optical spectra of reductase cofactors in eNOS was also examined for eNOS as isolated and reduced with 1 mM NADPH. eNOS only, eNOS NADPH, eNOS NADPH with 2′AMP, eNOS NADPH with 2′AMP and CAM, and NADPH 2′AMP were compared.\nas §1"}, "iNOS": {"target": "T4, iNOS (Mus musculus, UniProt P29477)", "T4 construct": "made in house; host or cells: E. coli", "T4 sequence (P29477 1-1144)": "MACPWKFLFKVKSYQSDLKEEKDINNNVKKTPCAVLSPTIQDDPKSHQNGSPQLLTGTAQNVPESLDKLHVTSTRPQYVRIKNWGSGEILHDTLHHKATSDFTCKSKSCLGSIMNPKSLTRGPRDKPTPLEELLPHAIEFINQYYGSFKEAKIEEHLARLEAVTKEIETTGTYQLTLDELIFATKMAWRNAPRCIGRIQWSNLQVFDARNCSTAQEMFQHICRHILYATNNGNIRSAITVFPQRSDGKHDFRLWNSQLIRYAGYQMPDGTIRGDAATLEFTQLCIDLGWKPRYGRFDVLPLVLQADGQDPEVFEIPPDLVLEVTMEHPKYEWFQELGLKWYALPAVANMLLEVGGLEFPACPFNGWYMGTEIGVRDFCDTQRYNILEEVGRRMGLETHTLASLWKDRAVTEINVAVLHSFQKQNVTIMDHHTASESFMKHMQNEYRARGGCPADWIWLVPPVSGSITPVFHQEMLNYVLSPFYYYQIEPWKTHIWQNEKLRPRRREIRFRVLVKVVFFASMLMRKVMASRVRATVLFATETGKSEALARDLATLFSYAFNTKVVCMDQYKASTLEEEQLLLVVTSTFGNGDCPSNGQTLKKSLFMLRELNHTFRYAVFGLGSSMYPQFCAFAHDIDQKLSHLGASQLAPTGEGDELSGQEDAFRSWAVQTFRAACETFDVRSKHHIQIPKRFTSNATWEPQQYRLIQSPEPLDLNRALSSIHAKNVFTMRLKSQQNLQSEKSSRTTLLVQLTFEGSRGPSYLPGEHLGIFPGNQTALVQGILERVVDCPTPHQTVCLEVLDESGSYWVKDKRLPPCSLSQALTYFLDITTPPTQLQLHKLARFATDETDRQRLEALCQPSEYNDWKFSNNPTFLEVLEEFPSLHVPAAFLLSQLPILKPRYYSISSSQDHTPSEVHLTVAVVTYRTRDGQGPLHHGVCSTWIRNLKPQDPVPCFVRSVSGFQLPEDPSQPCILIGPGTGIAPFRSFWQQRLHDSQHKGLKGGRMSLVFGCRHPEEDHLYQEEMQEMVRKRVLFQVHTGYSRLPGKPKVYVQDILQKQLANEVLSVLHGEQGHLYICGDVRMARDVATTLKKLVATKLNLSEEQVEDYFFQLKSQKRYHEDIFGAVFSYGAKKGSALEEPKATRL", "test": "Effect of NADPH analogs on iNOS electron transfer", "type": "biochemical, murine", "settings": "Tris buffer, absence of calmodulin"}, "eNOS [3]": {"target": "T5, eNOS (Bos taurus, UniProt P29473, DEL841-841)", "T5 construct": "made in house; host or cells: E. coli BL21 (pCWori+)", "test": "NO synthase activity per heme of eNOS mutants", "type": "biochemical, bovine", "settings": "fully activated state (Ca+2/CaM)", "procedure": "Expression and purification of wild type and mutant bovine eNOS and rat nNOS. Expression and purification of bovine eNOS and rat nNOS were performed using procedures similar to those previously described (Martasek, P.,et al., (1996) Biochem Biophys Res Commun. 219(2); 359-65). Transformed cells were broken with a French press, and after centrifugation to remove cell debris the supernatant was loaded on a 2′5′ADP affinity column, washed, and eluted with 2′AMP as described (id). […] Enzyme sample concentrations were determined on the basis of heme concentration, except in heme free preparations, where the flavin concentration was measured. UV-visible absorbance spectra were recorded on an Aminco DW-2000 spectrophotometer.\nas §1, with “In each well, the 500-uL reaction mixture contained 50 mM Na+ TRIS buffer, pH 7.5, 50 uM EDTA, 50 uM NADPH, 50 uM horse heart cytochrome c, and ˜10 nM of nNOS.” left out, “In Cam/Ca+2 dependence studies, 0.75 uM CaCl2 and 10 pg/ml calmodulin were added to reaction mixtures.” left out"}},
  "note": "“Also recorded” adds a separate entry of the source.",
  "data": [
    {"molecule": "Nc1ncnc2c1ncn2[C@@H]1O[C@H](CO)[C@@H](O)[C@H]1OP(=O)(O)O", "note": "[2′AMP]", "values": [
      {"measurement": "hyperactivation of eNOS", "setting": "eNOS [1]; Good's buffer systems (e.g., HEPES or MOPS), with Ca+2/CaM", "value": "2-3 fold"},
      {"measurement": "eNOS activity relative to eNOS activated by CaM alone", "setting": "eNOS [1]", "value": "2-3 times"},
      {"measurement": "eNOS activity relative to eNOS activated by CaM alone", "setting": "eNOS [1]; listed as 2′ AMP", "value": "3-5 times"},
      {"measurement": "hyperactivation of eNOS", "setting": "eNOS [1]; most widely used assay systems, Greiss assay", "value": "2-3 fold"},
      {"measurement": "Kd", "setting": "eNOS [1]; titration of eNOS in the presence of 'fully' activating levels of Ca+2/CaM, plate reader Greiss assay, read-out: apparent Kd of additional activation", "value": "~1000", "unit": "µM"},
      {"measurement": "enhanced level (activation) of cytochrome c reduction", "setting": "eNOS [2]; eNOS", "value": "2-5 fold"},
      {"measurement": "enhanced level (activation) of cytochrome c reduction", "setting": "nNOS; nNOS", "value": "2-5 fold"},
      {"measurement": "activation of cNOS in the absence of calmodulin", "setting": "cNOS", "value": "activated cNOS in the absence of calmodulin"}
    ]},
    {"molecule": "Nc1ncnc2c1ncn2[C@@H]1O[C@H](COP(=O)(O)OP(=O)(O)OP(=O)(O)O)[C@@H](O)[C@H]1O", "note": "[ATP]", "values": [
      {"measurement": "activation of electron transfer by ATP", "setting": "eNOS [2]; wild type eNOS, Tris buffer, absence of calmodulin", "value": "activation of electron transfer"},
      {"measurement": "activation of electron transfer by ATP", "setting": "nNOS; wild type nNOS, Tris buffer, absence of calmodulin", "value": "activation of electron transfer"},
      {"measurement": "inhibition of iNOS", "setting": "iNOS", "value": "INOS is inhibited; also recorded: inhibition of INOS"}
    ]},
    {"molecule": "G841 deletion mutant: bovine eNOS small insertion mutant with G841 deleted (protein, UniProt P29473 2-1205, looked up, variant G841*) Nitric oxide synthase 3: GNLKSVGQEPGPPCGLGLGLGLGLCGKQGPASPAPEPSRAPAPATPHAPDHSPAPNSPTLTRPPEGPKFPRVKNWELGSITYDTLCAQSQQDGPCTPRCCLGSLVLPRKLQTRPSPGPPPAEQLLSQARDFINQYYSSIKRSGSQAHEERLQEVEAEVASTGTYHLRESELVFGAKQAWRNAPRCVGRIQWGKLQVFDARDCSSAQEMFTYICNHIKYATNRGNLRSAITVFPQRAPGRGDFRIWNSQLVRYAGYRQQDGSVRGDPANVEITELCIQHGWTPGNGRFDVLPLLLQAPDEAPELFVLPPELVLEVPLEHPTLEWFAALGLRWYALPAVSNMLLEIGGLEFSAAPFSGWYMSTEIGTRNLCDPHRYNILEDVAVCMDLDTRTTSSLWKDKAAVEINLAVLHSFQLAKVTIVDHHAATVSFMKHLDNEQKARGGCPADWAWIVPPISGSLTPVFHQEMVNYILSPAFRYQPDPWKGSATKGAGITRKKTFKEVANAVKISASLMGTLMAKRVKATILYASETGRAQSYAQQLGRLFRKAFDPRVLCMDEYDVVSLEHEALVLVVTSTFGNGDPPENGESFAAALMEMSGPYNSSPRPEQHKSYKIRFNSVSCSDPLVSSWRRKRKESSNTDSAGALGTLRFCVFGLGSRAYPHFCAFARAVDTRLEELGGERLLQLGQGDELCGQEEAFRGWAKAAFQASCETFCVGEEAKAAAQDIFSPKRSWKRQRYRLSTQAEGLQLLPGLIHVHRRKMFQATVLSVENLQSSKSTRATILVRLDTAGQEGLQYQPGDHIGICPPNRPGLVEALLSRVEDPPPPTESVAVEQLEKGSPGPPPSWVRDPRLPPCTLRQALTFFLDITSPPSPRLLRLLSTLAEEPSEQQELETLSQDPRRYEEWKWFRCPTLLEVLEQFPSVALPAPLLLTQLPLLQPRYYSVSSAPNAHPGEVHLTVAVLAYRTQDGLGPLHYGVCSTWLSQLKTGDPVPCFIRGAPSFRLPPDPYVPCILVGPGTGIAPFRGFWQERLHDIESKGLQPAPMTLVFGCRCSQLDHLYRDEVQDAQERGVFGRVLTAFSREPDSPKTYVQDILRTELAAEVHRVLCLERGHMFVCGDVTMATSVLQTVQRILATEGDMELDEAGDVIGVLRDQQRYHEDIFGLTLRTQEVTSRIRTQSFSLQERHLRGAVPWAFDPPGPDTPGP", "values": [
      {"measurement": "activity per heme in the fully activated state", "setting": "eNOS [3]", "value": "85 % of wild type"}
    ]}
  ]
}
